Legend:
Format in all cases: cell-based
[1] = system: 14-3-3; assay: Association of endogenous MADD with 14-3-3 in HeLa cells (immunoprecipitation); settings: LY 10 μM 1 h
Description: (A) Cellular distributions of wtMADD and MADD3A. HEK293 cells were transfected with wtMADD or MADD3A. 36 h after transfection, the cells were harvested and membrane andcytosolic fractions were prepared. Immunoblotting was performed using an anti-YFP antibody. Actin and caveolin-1 were used as loading controls. (B) […]. HEK293 cells were transfected with wtMADD or MADD3A. 36 h after transfection, the cells were harvested for immunoprecipitation using an anti-14-3-3 antibody followed by immunoblotting using an anti-YFP antibody for detecting exogenous MADD. The membrane was reprobed with an anti-14-3-3 antibody to show protein loading. (C) Inhibition of PI3K can lead to the association of wtMADD with 14-3-3. HEK293 cells were transfected with wtMADD. Cells were serum starved for 20 h and treated with LY (10 μM) for 1 h. Immunoprecipitation was performed using an anti-14-3-3 antibody, followed by immunoblotting using an anti-YFP or an anti-14-3-3 antibody. (D) Inhibition of Akt can result in the association of wtMADD with 14-3-3. HEK293 cells were co-transfected with wtMADD along with DN-Akt or pcDNA. […]
To explore the molecular mechanism by which nonphosphorylated MADD can trigger apoptosis, the cellular localization of phosphorylated and nonphosphorylated MADD was determined. […]
Immunoprecipitation. […] Immunoblots were prepared and analysed as described above.

[2] = system: caspase-8; assay: Immunoblot of caspase-8 processing in transduced HeLa cells; settings: 48 h post-transduction
Description: To gain insight into the mechanism underlying MADD-mediated cell survival, whether caspases were activated upon abrogation of MADD expression examined. HeLa cells and PA-1 cells were collected 48 h post-transduction and probed for caspase-8 and FADD, which are components of the DISC. […] TRAIL treatment results in recruitment of procaspase-8 to the receptors followed by its cleavage resulting in its activation. The cleaved intermediate fragments (p43/p41) and the catalytically active subunits of caspase-8 (p18) were detected upon TRAIL treatment. Caspase-8 is the initiator caspase that can cause activation of the effector caspase-3. A decrease in the amount of pro-caspase-3 indicates its cleavage to form active caspase-3 only in MADD-depleted cells.
Immunoblotting. The membranes were blocked in 5% non-fat dry milk in PBS-Tween (PBS with 0.05% Tween 20) for 1 hour. Primary antibodies were used at a concentration of 1 μg/mL and the secondary antibodies were used at a 1:10000 concentration. The blots were developed by enhanced chemiluminescence according to the manufacturer's protocol (Pierce Biotechnology Inc., Rockford, Ill.).

[3] = system: ERK1/2; assay: TNF-α induced ERK phosphorylation in PA-1 cells (immunoblot); settings: PA-1, TNF-α 50 ng/mL 15 min, 48 h transduction, compared to SCR
Description: (A) HeLa cells (3×10^6 per 100 mm dish) were transduced with different lentiviruses expressing SCR, Mid and 16E ShRNA for 48 h. The cells were then serum starved for 6 h and were either left untreated or treated with TNF-α (50 ng/mL) for 15 min. Cell lysates were analyzed for phosphorylated ERK or total ERK by immunoblot. (B) PA-1 cells (5×10^6 per 100 mm dish) were transduced with different lentiviruses expressing SCR, Mid and 13L ShRNA for 48 h. The cells were then serum starved for 6 h and were either left unstimulated or stimulated with TNF-α (50 ng/mL) for 15 min. Cell lysates were analyzed for phosphorylated ERK or total ERK by immunoblot. (C) HeLa cells (3×10^5 per 60 mm dish) were either left untransfected or transfected with either SirMADD or EYFPC1 plasmids. Twenty-four hours post-transfection, the cells were infected with Mid ShRNA. Forty-eight hours post transduction, the cells were either left unstimulated or stimulated with TNF-α (50 ng/mL) for 15 min. Cell lysates were analyzed for phosphorylated ERK or total ERK by immunoblot. […]
Whether MADD isoform alone is playing a critical role in TNF-α induced ERK activation was determined. […] To delineate the role of MADD from DENN-SV, the effect of IG20 down-modulation upon TNF-α induced ERK phosphorylation was analyzed in PA-1 ovarian carcinoma cell line which expresses only two IG20 isoforms namely, MADD and DENN-SV. […]

Row | Molecule | Binding of endogenous MADD to 14-3-3 [1] | Intermediate active-caspase-8 proteins (p43/41) [2] | TNF-α induced ERK activation [3]
1 | O=c1cc(N2CCOCC2)oc2c(-c3ccccc3)cccc12 [LY] | could bind to 14-3-3 only in the presence, but not in the absence, of LY | – | –
2 | 13L-shRNA: shRNA targeting exon 13L (IG20, MADD), 5′ CGGCGAATCTATGACAATC-3′ (SEQ ID NO: 4) | – | higher amounts of the intermediate active-caspase-8 proteins (p43/41) | significant abrogation of ERK activation

Reference: patent publication US7910723B2, “IG20 splice variants therapeutics for cancer” (The Board of Trustees of the University of Illinois, priority 2006, dated 2011)
